# ChEMBL document CHEMBL1909511, “Inhalation by design: novel tertiary amine muscarinic M₃ receptor antagonists with slow off-rate binding kinetics for inhaled once-daily treatment of chronic obstructive pulmonary disease” (J Med Chem, 2011)
# Columns and labels:
# [1] = molecular target: T1, Muscarinic acetylcholine receptor M3 (Homo sapiens, UniProt P20309); assay: Antagonist activity at human recombinant M3 receptor expressed in CHO-K1 cells assessed as inhibition of carbamoyl choline-induced calcium currents after 4 hrs by fluorimetry; format: functional, cell-based
# Target sequence in this assay (P20309 whole entry): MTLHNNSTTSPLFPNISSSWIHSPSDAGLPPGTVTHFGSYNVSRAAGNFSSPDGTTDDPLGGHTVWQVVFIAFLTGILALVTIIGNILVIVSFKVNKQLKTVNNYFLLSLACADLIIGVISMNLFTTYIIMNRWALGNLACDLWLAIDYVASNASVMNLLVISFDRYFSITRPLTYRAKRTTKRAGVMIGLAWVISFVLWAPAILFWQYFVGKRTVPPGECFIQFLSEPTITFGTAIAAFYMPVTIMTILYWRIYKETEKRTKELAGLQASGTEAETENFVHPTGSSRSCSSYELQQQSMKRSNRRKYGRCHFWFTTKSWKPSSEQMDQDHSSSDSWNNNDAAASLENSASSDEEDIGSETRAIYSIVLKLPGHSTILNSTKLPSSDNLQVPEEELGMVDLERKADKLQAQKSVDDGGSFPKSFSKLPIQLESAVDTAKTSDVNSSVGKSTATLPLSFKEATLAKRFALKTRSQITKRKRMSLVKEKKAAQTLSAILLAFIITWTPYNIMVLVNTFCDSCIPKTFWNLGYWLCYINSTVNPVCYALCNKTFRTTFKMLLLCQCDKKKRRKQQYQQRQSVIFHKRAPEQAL
# [2] = molecular target: T1, Muscarinic acetylcholine receptor M3; conditions: CHO
# Target sequence in this assay (P20309 whole entry, looked up): as the sequence (P20309 whole entry) above
# [3] = molecular target: T2, Muscarinic acetylcholine receptor M2 (Homo sapiens, UniProt P08172); assay: Displacement of [3H]-NMS from human recombinant M2 receptor expressed in CHO cells after 2 hrs by filter binding assay; format: cell-based
# T2 sequence (P08172 whole entry): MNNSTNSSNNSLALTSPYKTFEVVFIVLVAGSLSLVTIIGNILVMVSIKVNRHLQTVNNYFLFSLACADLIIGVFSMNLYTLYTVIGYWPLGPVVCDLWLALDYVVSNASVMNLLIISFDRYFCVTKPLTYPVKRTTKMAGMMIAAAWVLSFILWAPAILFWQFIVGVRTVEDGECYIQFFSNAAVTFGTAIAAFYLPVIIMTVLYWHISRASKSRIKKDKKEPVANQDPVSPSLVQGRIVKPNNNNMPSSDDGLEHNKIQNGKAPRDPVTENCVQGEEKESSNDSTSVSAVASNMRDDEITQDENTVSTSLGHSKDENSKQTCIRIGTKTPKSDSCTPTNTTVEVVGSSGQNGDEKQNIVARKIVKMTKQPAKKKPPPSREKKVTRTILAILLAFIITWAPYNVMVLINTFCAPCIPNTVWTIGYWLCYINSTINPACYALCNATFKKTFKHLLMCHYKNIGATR
# [4] = molecular target: T1, Muscarinic acetylcholine receptor M3; assay: Displacement of [3H]-NMS from human recombinant M3 receptor expressed in CHO cells after 2 hrs by filter binding assay; format: cell-based
# Target sequence in this assay (P20309 whole entry): as the sequence (P20309 whole entry) above
# [5] = Apparent permeability across apical to basolateral side in human Caco2 cells; format: ADME, cell-based; conditions: Caco-2
# [6] = Apparent permeability across basolateral to apical side in human Caco2 cells; format: ADME, cell-based; conditions: Caco-2
# [7] = Intrinsic clearance in human liver microsomes assessed per mg of protein in presence of NADPH
# [8] = Intrinsic clearance in human liver microsomes assessed per mg of protein by glucuronidation assay in presence of Brijj-58 and UDPGA
# [9] = Intrinsic clearance in human hepatocytes assessed per million cells
# Cavia porcellus = assay: Bronchodilator activity in Dunkin-Hartley guinea pig assessed as inhibition of […] lung resistance after cumulative intratracheal administration in micelle solution at hourly intervals challenged each time 1 hr later with methacholine; format: functional, organism-based
# [10] = molecular target: Muscarinic acetylcholine receptor M3 (Cavia porcellus) (UniProt Q8VH26); assay: Antagonist activity at M3 receptor in Dunkin-Hartley guinea pig tracheal strips assessed as time taken for electrically field-stimulated contractile response to recover by 25 percent of inhibition at Emax after 2 hrs; format: functional
# Sequence of Muscarinic acetylcholine receptor M3 (Cavia porcellus) (Q8VH26 1-587): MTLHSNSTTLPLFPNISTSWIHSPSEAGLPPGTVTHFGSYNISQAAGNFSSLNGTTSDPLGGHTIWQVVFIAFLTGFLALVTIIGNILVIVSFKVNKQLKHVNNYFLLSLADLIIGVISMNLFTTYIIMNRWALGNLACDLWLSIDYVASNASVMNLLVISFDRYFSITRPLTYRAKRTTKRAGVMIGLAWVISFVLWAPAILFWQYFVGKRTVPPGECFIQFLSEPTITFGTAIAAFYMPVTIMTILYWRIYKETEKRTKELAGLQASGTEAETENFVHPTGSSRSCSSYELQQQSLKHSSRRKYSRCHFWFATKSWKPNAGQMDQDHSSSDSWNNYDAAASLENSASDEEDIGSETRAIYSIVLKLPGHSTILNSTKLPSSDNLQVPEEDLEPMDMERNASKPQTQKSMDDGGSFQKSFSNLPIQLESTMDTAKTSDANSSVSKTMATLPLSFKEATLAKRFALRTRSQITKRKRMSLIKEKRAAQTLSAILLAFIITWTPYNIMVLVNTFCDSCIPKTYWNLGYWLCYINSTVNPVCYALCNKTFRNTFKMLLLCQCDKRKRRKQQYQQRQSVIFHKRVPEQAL
# [11] = molecular target: Muscarinic acetylcholine receptor M3 (Cavia porcellus, UniProt Q8VH26); assay: Antagonist activity at M3 receptor in Dunkin-Hartley guinea pig tracheal strips assessed as inhibition of electrically field-stimulated contractile response after 8 hrs; format: functional
# Sequence of Muscarinic acetylcholine receptor M3 (Cavia porcellus, UniProt Q8VH26) (Q8VH26 whole entry): as the sequence (Q8VH26 1-587) above
# Canis familiaris [12] = assay: Bronchodilator activity in Beagle dog assessed as inhibition of methacholine-induced lung resistance after cumulative intratracheal administration in micelle solution at hourly intervals challenged each time 1 hr later with methacholine; format: functional, Canis lupus familiaris
# [13] = molecular target: T3, Muscarinic acetylcholine receptor M5 (Homo sapiens) (UniProt P08912); assay: Displacement of [3H]-NMS from human recombinant M5 receptor expressed in CHO cells assessed as dissociation half life at 100 fold human M5 receptor binding Ki concentration after 24 hrs by dilution-offset filter binding assay; format: cell-based
# T3 sequence (whole entry): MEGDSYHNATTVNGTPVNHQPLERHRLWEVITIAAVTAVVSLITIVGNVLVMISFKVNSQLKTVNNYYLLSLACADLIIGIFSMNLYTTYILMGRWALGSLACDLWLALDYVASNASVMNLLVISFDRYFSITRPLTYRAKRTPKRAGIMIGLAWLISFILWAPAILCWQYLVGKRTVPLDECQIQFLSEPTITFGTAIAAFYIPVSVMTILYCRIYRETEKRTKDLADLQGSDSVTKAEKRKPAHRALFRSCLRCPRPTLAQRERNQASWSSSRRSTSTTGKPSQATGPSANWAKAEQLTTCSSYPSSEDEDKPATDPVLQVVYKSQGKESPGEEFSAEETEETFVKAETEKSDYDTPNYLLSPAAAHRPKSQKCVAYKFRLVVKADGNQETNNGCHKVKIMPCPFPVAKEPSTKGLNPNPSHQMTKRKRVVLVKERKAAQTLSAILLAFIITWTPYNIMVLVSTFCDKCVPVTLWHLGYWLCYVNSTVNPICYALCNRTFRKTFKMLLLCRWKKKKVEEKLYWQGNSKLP
# [14] = molecular target: T1, Muscarinic acetylcholine receptor M3
# Target sequence in this assay (P20309 whole entry, looked up): as the sequence (P20309 whole entry) above
# [15] = molecular target: T4, Muscarinic acetylcholine receptor M4 (Homo sapiens, UniProt P08173); assay: Displacement of [3H]-NMS from human recombinant M4 receptor expressed in CHO cells after 24 hrs by filter binding assay; format: cell-based
# T4 sequence (P08173 whole entry): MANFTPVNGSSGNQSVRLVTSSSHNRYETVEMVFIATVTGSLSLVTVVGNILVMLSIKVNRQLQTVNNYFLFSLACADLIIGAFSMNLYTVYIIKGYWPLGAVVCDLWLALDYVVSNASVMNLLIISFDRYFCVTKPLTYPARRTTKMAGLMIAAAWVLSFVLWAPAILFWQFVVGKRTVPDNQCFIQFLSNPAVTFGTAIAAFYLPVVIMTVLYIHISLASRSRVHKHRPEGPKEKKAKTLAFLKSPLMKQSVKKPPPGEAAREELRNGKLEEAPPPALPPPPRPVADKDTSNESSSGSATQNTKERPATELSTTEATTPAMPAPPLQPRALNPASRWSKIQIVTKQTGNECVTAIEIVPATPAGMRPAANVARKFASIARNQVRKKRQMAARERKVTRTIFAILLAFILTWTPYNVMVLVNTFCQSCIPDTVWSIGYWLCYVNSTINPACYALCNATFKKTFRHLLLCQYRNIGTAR
# [16] = molecular target: T5, Muscarinic acetylcholine receptor M1 (Homo sapiens) (UniProt P11229); assay: Displacement of [3H]-NMS from human recombinant M1 receptor expressed in CHO cells assessed as dissociation half life at 100 fold human M1 receptor binding Ki concentration after 24 hrs by dilution-offset filter binding assay; format: cell-based
# T5 sequence (whole entry): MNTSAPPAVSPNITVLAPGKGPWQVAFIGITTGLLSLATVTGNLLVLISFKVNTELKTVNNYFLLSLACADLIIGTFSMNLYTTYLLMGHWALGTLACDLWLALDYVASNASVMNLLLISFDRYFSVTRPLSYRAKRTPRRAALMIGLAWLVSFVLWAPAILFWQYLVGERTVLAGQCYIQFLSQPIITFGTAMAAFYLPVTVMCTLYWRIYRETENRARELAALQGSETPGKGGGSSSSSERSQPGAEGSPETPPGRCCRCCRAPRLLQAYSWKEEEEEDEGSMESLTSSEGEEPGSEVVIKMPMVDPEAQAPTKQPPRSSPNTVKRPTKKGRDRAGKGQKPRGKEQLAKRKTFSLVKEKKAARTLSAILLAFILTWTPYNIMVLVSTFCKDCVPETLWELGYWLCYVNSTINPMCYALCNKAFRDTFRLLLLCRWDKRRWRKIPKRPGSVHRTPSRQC
# Canis familiaris [17] = assay: Bronchodilator activity in methacholine challenged Beagle dog assessed as intrinsic duration of action at 10 ug intratracheally administered as single dose in micelle solution; format: functional, Canis lupus familiaris
# [18] = molecular target: T1, Muscarinic acetylcholine receptor M3; conditions: CHO; remark: listed apart in the source
# Target sequence in this assay (P20309 whole entry, looked up): as the sequence (P20309 whole entry) above
# [19] = molecular target: T6, Muscarinic acetylcholine receptor M5 (Homo sapiens, UniProt P08912); assay: Displacement of [3H]-NMS from human recombinant M5 receptor expressed in CHO cells after 24 hrs by filter binding assay; format: cell-based
# T6 sequence (P08912 whole entry): T3 sequence (whole entry)
# [20] = molecular target: T7, Muscarinic acetylcholine receptor M4 (Homo sapiens) (UniProt P08173); assay: Displacement of [3H]-NMS from human recombinant M4 receptor expressed in CHO cells assessed as dissociation half life at 100 fold human M4 receptor binding Ki concentration after 24 hrs by dilution-offset filter binding assay; format: cell-based
# T7 sequence (whole entry): T4 sequence (P08173 whole entry)
# [21] = molecular target: T1, Muscarinic acetylcholine receptor M3; remark: listed apart in the source
# Target sequence in this assay (P20309 whole entry, looked up): as the sequence (P20309 whole entry) above
# Description: Displacement of radioligand from M3 receptor assessed as dissociation half life
# [22] = molecular target: T8, Muscarinic acetylcholine receptor M2 (Homo sapiens) (UniProt P08172); assay: Displacement of [3H]-NMS from human recombinant M2 receptor expressed in CHO cells assessed as dissociation half life at 100 fold human M2 receptor binding Ki concentration after 24 hrs by dilution-offset filter binding assay; format: cell-based
# T8 sequence (whole entry): T2 sequence (P08172 whole entry)
smiles,measurement,setting,value
CC(C)(CCC(C(N)=O)(c1ccccc1)c1ccccc1)N1CC[C@H](Oc2ccc(Cl)c(O)c2)C1,Ki,[1],2 nM
same,T1/2,[2],13.4 h
CC(C)(CCC(C(N)=O)(c1ccccc1)c1ccccc1)N1CC[C@@H](Oc2ccccc2)C1,Ki,[1],1.6 nM
same,Ki,[3],12 nM
same,Ki,[4],6.4 nM
same,T1/2,[2],> 24 h
CC(C)(CCC(C(N)=O)(c1ccccc1)c1ccccc1)N1CC[C@H](Oc2ccccc2)C1,Papp A→B,[5],16 ×10⁻⁶ cm/s
same,Ki,[1],0.25 nM
same,Ki,[3],1.6 nM
same,Ki,[4],1.8 nM
same,T1/2,[2],> 24 h
same,Papp B→A,[6],13 ×10⁻⁶ cm/s
CC(C)(CCC(C(N)=O)(c1ccccc1)c1ccccc1)N1CC(Oc2ccccc2O)C1,Ki,[1],11 nM
CC(C)(CCC(C(N)=O)(c1ccccc1)c1ccccc1)N1CC(Oc2ccc(Cl)c(O)c2)C1,Ki,[1],1.9 nM
same,microsomal CLint,[7],116 µL/min/mg
same,microsomal CLint,[8],430 µL/min/mg
same,hepatocyte CLint,[9],159 µL/min/1e6 cells
same,T1/2,[2],23.5 h
CC(C)(CCC(C(N)=O)(c1ccccc1)c1ccccc1)N1CC(Oc2cccc(O)c2F)C1,ED50,Cavia porcellus,4 µg
same,TIME,[10],> 16 h
same,IC50,[11],3.48 nM
CC(C)(CCC(C(N)=O)(c1ccccc1)c1ccccc1)N1CC[C@@H](Oc2cc(O)cc(F)c2)C1,Ki,[1],0.56 nM
same,microsomal CLint,[7],> 440 µL/min/mg
same,hepatocyte CLint,[9],114 µL/min/1e6 cells
same,T1/2,[2],> 24 h
CC(C)(CCC(C(N)=O)(c1ccccc1)c1ccccc1)N1CC(Oc2ccccc2)C1,microsomal CLint,[7],> 440 µL/min/mg
same,Ki,[3],0.056 nM
same,Ki,[4],0.11 nM
same,T1/2,[2],8.02 h
CC(C)(CCC(C(N)=O)(c1ccccc1)c1ccccc1)N1CC[C@@H](Oc2cccc(O)c2)C1,ED50,Cavia porcellus,20 µg
same,TIME,[10],> 16 h
same,IC50,[11],3.87 nM
CC(C)(CCC(C(N)=O)(c1ccccc1)c1ccccc1)N1CCC(Oc2ccccc2)CC1,Ki,[3],2.6 nM
same,Ki,[4],3.9 nM
same,T1/2,[2],17.5 h
NC(=O)C(CCCN1CC[C@H](Oc2ccccc2)C1)(c1ccccc1)c1ccccc1,Ki,[1],2.4 nM
same,Ki,[3],15 nM
same,Ki,[4],1.9 nM
same,T1/2,[2],0.633 h
CC(C)[N+]1(C)C2CCC1CC(OC(=O)C(CO)c1ccccc1)C2.O.[Br-] (stereo not given),ID50,Canis familiaris [12],10 µg
same,TIME,[10],1.47 h
CC(C)(CCC(C(N)=O)(c1ccccc1)c1ccccc1)N1CC(Oc2cc(O)cc(Cl)c2)C1,Ki,[1],0.22 nM
same,microsomal CLint,[7],361 µL/min/mg
same,microsomal CLint,[8],223 µL/min/mg
same,hepatocyte CLint,[9],116 µL/min/1e6 cells
CC(C)(CCC(C(N)=O)(c1ccccc1)c1ccccc1)N1CC(OCc2cccc(O)c2)C1,Ki,[1],0.18 nM
same,microsomal CLint,[7],364 µL/min/mg
same,microsomal CLint,[8],13 µL/min/mg
same,hepatocyte CLint,[9],34 µL/min/1e6 cells
same,T1/2,[2],20.7 h
CC(C)(CCC(C(N)=O)(c1ccccc1)c1ccccc1)N1CC[C@H](Oc2ccc(O)cc2)C1,Ki,[1],0.76 nM
same,T1/2,[2],3.82 h
CC(C)(CCC(C(N)=O)(c1ccccc1)c1ccccc1)N1CC(Oc2cc(O)cc(F)c2)C1,microsomal CLint,[7],176 µL/min/mg
same,microsomal CLint,[8],403 µL/min/mg
C[N+]1(C)[C@@H]2C[C@@H](OC(=O)C(O)(c3cccs3)c3cccs3)C[C@H]1[C@@H]1O[C@@H]12.O.[Br-] [TIOTROPIUM BROMIDE],T1/2,[13],> 24 h
same,pKb,[14],10.2
same,Ki,[15],0.0078 nM
same,T1/2,[16],> 23.8 h
same,Time,Canis familiaris [17],32 h
same,T1/2,[18],> 22.8 h
same,Ki,[19],0.0266 nM
same,T1/2,[20],> 24 h
same,T1/2,[21],9.45 h
same,ID50,Canis familiaris [12],3 µg
same,TIME,[10],> 12.9 h
same,T1/2,[2],> 24 h
same,T1/2,[22],> 13 h
CC(C)(CCC(C(N)=O)(c1ccccc1)c1ccccc1)N1CC[C@H](Oc2cccc(O)c2)C1,ED50,Cavia porcellus,10 µg
same,TIME,[10],> 16 h
same,IC50,[11],4.3 nM
